Reference: PubChem BioAssay AID1963844 (Molecular Pharmacology Branch, DTP, NCI, 2024)

Test system: 422866-222-R5-J1-PDC complex spheroid viability
Experiment: Anticancer human tumor 422866-222-R5-J1-PDC patient-derived pancreatic adenocarcinoma cell line growth inhibition [POLQ]
Details: for IC50: curve of first compound; for viability, T/C: stronger effect = lower value
Method: Multicellular complex tumor spheroid response to Polymerase (POL) inhibitors (novobiocin, ART-558, RP6685) in combination with a variety of drugs and investigational agents in selected tumor cell lines
The POL inhibitors (novobiocin, ART-558, and RP6685) were evaluated both individually and in combination with standard of care and investigational anticancer small molecules within a complex spheroid model of solid tumors. . Complex spheroids include a stromal component modeled by human endothelial cells (HUVEC) and fibroblasts modeled by human mesenchymal stem cells (MSCs). The concentration ranges selected for each drug and investigational agent were based upon clinically achievable concentrations if the clinical Cmax of the agent was known.
Compounds. The drugs and investigational agents: novobiocin (NSC847541), ART-558 (NSC835418), RP-6685 (NSC848927), peposertib (NSC802822), ceralasertib (NSC780249), elimusertib (NSC800525), camonsertib (NSC841442), AZD-1390 (NSC803789), olaparib (NSC753686), talazoparib (NSC767125), rucaparib (NSC756644), sotorasib (NSC818433), MRTX-1133 (NSC836407), SN-38 (NSC673596), topotecan (NSC609699), epotoside (NSC141540), doxorubicin (NSC123127), gemcitabine (NSC613327), 5-fluorouracil (NSC19893), paclitaxel (NSC125973), vemurafenib (NSC761431), MSA-2 (NSC828583), SN-011 (NSC837082), adavosertib (NSC754352), prexasertib (NSC758257), carboplatin (NSC241240) and oxaliplatin (NSC266046), were obtained from the National Cancer Institute (NCI) Developmental Therapeutics Program Chemical Repository (21). The FDA-approved anticancer drug set is available from the Developmental Therapeutics Program at https://dtp.cancer.gov/organization/dscb/obtaining/. […] The stock solutions were prepared in dimethyl sulfoxide (DMSO, Sigma-Aldrich, St. Louis, MO, cat. D2650), except for the platinum compounds which were prepared in saline (Quality Biological, Gaithersburg, MD, cat. 114-055-101), at 800-fold the tested concentration and stored at -70 degrees C prior to their use. All drugs and investigational agents were tested over a range starting from a high concentration at or near the clinical Cmax and decreasing in half-log increments. If the clinical Cmax for an agent had not been determined, the highest concentration tested was 10 microM, except for SN-38, which was tested at a high concentration of 1 microM.
Cell Culture. All cells were maintained in an incubator at 37 degrees C and 5% CO2 with 95% humidity. The PDC lines were cultured according to standard operating procedures established by the NCI PDMR (https://pdmr.cancer.gov). Table 3 of the manuscript, lists the cell lines along with the number of the three cell types plated to form the mct-spheroids and media for tumor cell growth. After thawing, all PDC lines, except 997537-175-T-J1-PDC and 415267-285-R-J2-PDC, were cultured in Matrigel-coated flasks prepared with a working solution of 1X Ham's F-12 nutrient mix, without supplementation (Thermo Fisher Scientific, cat. 11765054), 100 U/mL penicillin-streptomycin (Thermo Fisher Scientific, cat. 15140122), and 2.5% Matrigel (Corning Inc., Corning, NY, cat. 354248) for the first three passages. The two PDC lines 997537-175-T-J1-PDC and 415267-285-R-J2-PDC were cultured on uncoated flasks. The 857933-349-R-J2-PDC line was cultured in 6C/Colon 1B media containing advanced DMEM/F-12 (Thermo Fisher Scientific, cat. 12634028), 10 mM HEPES (Thermo Fisher Scientific, cat. 15630080), 1X GlutaMAX supplement (Thermo Fisher Scientific, cat. 35050061), 0.1 mg/mL primocin (InvivoGen, San Diego, CA, cat. ant-pm-2), 10% defined fetal bovine serum, heat inactivated (HyClone Laboratories Inc., Logan, UT, cat. SH30070.03HI), 50% L-WRN conditioned media (ATCC, cat. CRL-3276), 1.25 mM N-Acetyl-L-cysteine (Sigma-Aldrich, cat. A9165), 10 mM nicotinamide (Sigma-Aldrich, cat. N0636), 1X B-27 supplement (Thermo Fisher Scientific, cat. 17504044), 1X N-2 supplement (Thermo Fisher Scientific, cat. […]

[1] = second compound 0.0316 µM, first compound 0.0316 µM
[2] = second compound 0.0316 µM, first compound 0.1 µM
[3] = second compound 0.1 µM, first compound 0.0316 µM
[4] = second compound 0.1 µM, first compound 0.1 µM
[5] = second compound 0.316 µM, first compound 0.0316 µM
[6] = second compound 0.316 µM, first compound 0.1 µM
[7] = second compound 1 µM, first compound 0.0316 µM
[8] = second compound 1 µM, first compound 0.1 µM
[9] = second compound 3.16 µM, first compound 0.0316 µM
[10] = second compound 3.16 µM, first compound 0.1 µM
[11] = second compound 10 µM, first compound 0.0316 µM
[12] = second compound 10 µM, first compound 0.1 µM
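Also: spheroids exposed to compounds for one week before readout.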
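For viability, T/C in this document: percent of DMSO vehicle wells luminescence so 100% = untreated viability.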

## CC1COCCN1c1cc(-c2ccnn2C)c2ccnc(-c3ccn[nH]3)c2n1 (centres undefined) + COC1C(OC(N)=O)C(O)C(Oc2ccc3c(O)c(NC(=O)c4ccc(O)c(CC=C(C)C)c4)c(=O)oc3c2C)OC1(C)C
Second compound 0.0316 µM
  IC50: > 10000 nM
Second compound 0.1 µM
  IC50: > 10000 nM
Second compound 0.316 µM
  IC50: > 10000 nM
Second compound 1 µM
  IC50: > 10000 nM
Second compound 3.16 µM
  IC50: > 10000 nM
Second compound 10 µM
  IC50: > 10000 nM
[1]
  viability, T/C: 87.7%
[2]
  viability, T/C: 62%
Second compound 0.0316 µM, first compound 0.316 µM
  viability, T/C: 42.2%
Second compound 0.0316 µM, first compound 1 µM
  viability, T/C: 40%
Second compound 0.0316 µM, first compound 3.16 µM
  viability, T/C: 85.1%
Second compound 0.0316 µM, first compound 10 µM
  viability, T/C: 67.3%
[3]
  viability, T/C: 90.1%
[4]
  viability, T/C: 52.9%
Second compound 0.1 µM, first compound 0.316 µM
  viability, T/C: 39.8%
Second compound 0.1 µM, first compound 1 µM
  viability, T/C: 46.1%
Second compound 0.1 µM, first compound 3.16 µM
  viability, T/C: 87.3%
Second compound 0.1 µM, first compound 10 µM
  viability, T/C: 79.7%
[5]
  viability, T/C: 96.5%
[6]
  viability, T/C: 51.9%
Second compound 0.316 µM, first compound 0.316 µM
  viability, T/C: 35.3%
Second compound 0.316 µM, first compound 1 µM
  viability, T/C: 39%
Second compound 0.316 µM, first compound 3.16 µM
  viability, T/C: 88.5%
Second compound 0.316 µM, first compound 10 µM
  viability, T/C: 77%
[7]
  viability, T/C: 77.5%
[8]
  viability, T/C: 58.1%
Second compound 1 µM, first compound 0.316 µM
  viability, T/C: 43.3%
Second compound 1 µM, first compound 1 µM
  viability, T/C: 34.5%
Second compound 1 µM, first compound 3.16 µM
  viability, T/C: 77.9%
Second compound 1 µM, first compound 10 µM
  viability, T/C: 63.5%
[9]
  viability, T/C: 82.6%
[10]
  viability, T/C: 64.6%
Second compound 3.16 µM, first compound 0.316 µM
  viability, T/C: 39.9%
Second compound 3.16 µM, first compound 1 µM
  viability, T/C: 32%
Second compound 3.16 µM, first compound 3.16 µM
  viability, T/C: 88.1%
Second compound 3.16 µM, first compound 10 µM
  viability, T/C: 78.4%
[11]
  viability, T/C: 82.7%
[12]
  viability, T/C: 55.2%
Second compound 10 µM, first compound 0.316 µM
  viability, T/C: 46.2%
Second compound 10 µM, first compound 1 µM
  viability, T/C: 33.2%
Second compound 10 µM, first compound 3.16 µM
  viability, T/C: 81.1%
Second compound 10 µM, first compound 10 µM
  viability, T/C: 71.7%

## CC[C@@]1(O)C(=O)OCc2c1cc1n(c2=O)Cc2cc3c(CN(C)C)c(O)ccc3nc2-1 + COC1C(OC(N)=O)C(O)C(Oc2ccc3c(O)c(NC(=O)c4ccc(O)c(CC=C(C)C)c4)c(=O)oc3c2C)OC1(C)C
Second compound 0.0316 µM
  IC50: 22.9 nM
Second compound 0.1 µM
  IC50: 21.6 nM
Second compound 0.316 µM
  IC50: 23.3 nM
Second compound 1 µM
  IC50: 20.7 nM
Second compound 3.16 µM
  IC50: 26 nM
Second compound 10 µM
  IC50: 22.4 nM
Second compound 0.0316 µM, first compound 0.000316 µM
  viability, T/C: 105%
Second compound 0.0316 µM, first compound 0.001 µM
  viability, T/C: 92.5%
Second compound 0.0316 µM, first compound 0.00316 µM
  viability, T/C: 96.7%
Second compound 0.0316 µM, first compound 0.01 µM
  viability, T/C: 77%
[1]
  viability, T/C: 39.2%
[2]
  viability, T/C: 32.7%
Second compound 0.1 µM, first compound 0.000316 µM
  viability, T/C: 92.1%
Second compound 0.1 µM, first compound 0.001 µM
  viability, T/C: 96.3%
Second compound 0.1 µM, first compound 0.00316 µM
  viability, T/C: 99.4%
Second compound 0.1 µM, first compound 0.01 µM
  viability, T/C: 77.8%
[3]
  viability, T/C: 32.3%
[4]
  viability, T/C: 40.1%
Second compound 0.316 µM, first compound 0.000316 µM
  viability, T/C: 113%
Second compound 0.316 µM, first compound 0.001 µM
  viability, T/C: 97.9%
Second compound 0.316 µM, first compound 0.00316 µM
  viability, T/C: 85.4%
Second compound 0.316 µM, first compound 0.01 µM
  viability, T/C: 69.1%
[5]
  viability, T/C: 37.3%
[6]
  viability, T/C: 39.4%
Second compound 1 µM, first compound 0.000316 µM
  viability, T/C: 106%
Second compound 1 µM, first compound 0.001 µM
  viability, T/C: 92.3%
Second compound 1 µM, first compound 0.00316 µM
  viability, T/C: 92%
Second compound 1 µM, first compound 0.01 µM
  viability, T/C: 61.8%
[7]
  viability, T/C: 43.1%
[8]
  viability, T/C: 35.6%
Second compound 3.16 µM, first compound 0.000316 µM
  viability, T/C: 96.4%
Second compound 3.16 µM, first compound 0.001 µM
  viability, T/C: 105%
Second compound 3.16 µM, first compound 0.00316 µM
  viability, T/C: 90.9%
Second compound 3.16 µM, first compound 0.01 µM
  viability, T/C: 71.5%
[9]
  viability, T/C: 45.3%
[10]
  viability, T/C: 37.8%
Second compound 10 µM, first compound 0.000316 µM
  viability, T/C: 93.8%
Second compound 10 µM, first compound 0.001 µM
  viability, T/C: 95.2%
Second compound 10 µM, first compound 0.00316 µM
  viability, T/C: 83.2%
Second compound 10 µM, first compound 0.01 µM
  viability, T/C: 71.6%
[11]
  viability, T/C: 39.8%
[12]
  viability, T/C: 30.8%
